Reference: publication PMC6514012, “Targeting the neuronal calcium sensor DREAM with small-molecules for Huntington’s disease treatment” (Scientific Reports, 2019)

T1: GST-DREAM (Homo sapiens, UniProt Q9Y2W7, Y118A)
T1 construct: gene KCNIP3
T1 sequence (Q9Y2W7 1-256 Y118A): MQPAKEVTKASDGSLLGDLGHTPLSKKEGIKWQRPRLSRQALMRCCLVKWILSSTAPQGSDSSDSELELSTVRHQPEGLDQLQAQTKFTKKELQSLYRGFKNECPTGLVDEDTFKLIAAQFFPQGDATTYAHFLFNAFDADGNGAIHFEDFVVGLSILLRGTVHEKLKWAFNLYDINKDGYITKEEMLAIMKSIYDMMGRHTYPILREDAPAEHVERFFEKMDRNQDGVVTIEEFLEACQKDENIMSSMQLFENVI

T2: GST-DREAM (Homo sapiens, UniProt Q9Y2W7, Y130A)
T2 construct: gene KCNIP3
T2 sequence (Q9Y2W7 1-256 Y130A): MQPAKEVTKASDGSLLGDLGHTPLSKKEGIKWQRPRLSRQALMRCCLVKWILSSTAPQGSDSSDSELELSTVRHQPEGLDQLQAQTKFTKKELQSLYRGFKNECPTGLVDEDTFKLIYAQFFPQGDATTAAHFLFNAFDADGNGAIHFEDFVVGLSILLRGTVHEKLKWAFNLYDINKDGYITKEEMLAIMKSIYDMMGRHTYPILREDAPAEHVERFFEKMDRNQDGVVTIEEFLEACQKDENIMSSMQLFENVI

T3: His-DREAM (71–256); rDREAM (Homo sapiens, UniProt Q9Y2W7)
T3 construct: gene KCNIP3; residues 71-256, His-tagged, recombinant, immobilized on CM4 sensor chip; dimer and monomer in Ca2+
T3 sequence (Q9Y2W7 71-256): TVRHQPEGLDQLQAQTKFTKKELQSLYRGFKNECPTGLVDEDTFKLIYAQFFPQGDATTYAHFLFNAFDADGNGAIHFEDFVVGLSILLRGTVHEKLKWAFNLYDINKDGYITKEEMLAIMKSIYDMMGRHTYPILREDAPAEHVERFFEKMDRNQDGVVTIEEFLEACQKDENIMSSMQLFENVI


How the values were obtained:
GST-DREAM [1] = target: T1, GST-DREAM; assay: SPR, immobilized protein; format: binding; conditions: CM5 chip; compared with wild type
GST-DREAM [2] = target: T2, GST-DREAM; assay: SPR, immobilized protein; format: binding; conditions: CM5 chip; compared with wild type
[3] = target: T3, His-DREAM (71–256); rDREAM; assay: SPR, immobilized protein; conditions: CM4 chip; binding depends on Ca2+ and Mg2+
[4] = target: the molecule itself; assay: native gel or EMSA; 10% blue native (nondenaturing, nonreducing) polyacrylamide gel; His-DREAM 71-256 (50 ng, 100 nM) with 5 mM CaCl2, incubated 10 min at RT with 10, 30, 100 and 300 nM IQM-PC330; immunodetection with anti-DREAM antibody; dimer and monomer bands

Row | KD [3] | Molecule | SPR, immobilized protein (GST-DREAM [1]) | SPR, immobilized protein (GST-DREAM [2]) | stoichiometry N [4]
1 | 2.8 ± 0.3 · 10^−5 M | CCCCc1ccc(-c2ccc(C(=O)O)c(NC(=O)Cc3ccc(Cl)c(Cl)c3)c2)cc1 [compound 19, 2-[2-(3,4-Dichlorophenyl)acetylamino]-4-(4′-n-butylphenyl)benzoic acid] | Tyr118Ala or Tyr130Ala showed a substantial decrease in the binding of the two ligands | Tyr118Ala or Tyr130Ala showed a substantial decrease in the binding of the two ligands | –
2 | 3.9 ± 0.4 · 10^−5 M | CCCCc1ccc(-c2ccc(NC(=O)Cc3ccc(Cl)c(Cl)c3)c(C(=O)O)c2)cc1 [compound 36, 2-[2-(3,4-Dichlorophenyl)acetylamino]-5-(4’-n-butylphenyl)benzoic acid] | Tyr118Ala or Tyr130Ala showed a substantial decrease in the binding of the two ligands | Tyr118Ala or Tyr130Ala showed a substantial decrease in the binding of the two ligands | –
3 | – | Recombinant His-tagged soluble DREAM protein (aa 71–256) (domain or fragment, UniProt Q9Y2W7 71-256, looked up, DREAM (downstream regulatory element antagonist modulator; KChIP3, calsenilin), residues 71-256; Seen as dimer and monomer on blue native gels with 5 mM CaCl2; also called rDREAM; recombinant DREAM (amino acids 71–256); source: recombinant protein) TVRHQPEGLDQLQAQTKFTKKELQSLYRGFKNECPTGLVDEDTFKLIYAQFFPQGDATTYAHFLFNAFDADGNGAIHFEDFVVGLSILLRGTVHEKLKWAFNLYDINKDGYITKEEMLAIMKSIYDMMGRHTYPILREDAPAEHVERFFEKMDRNQDGVVTIEEFLEACQKDENIMSSMQLFENVI | – | – | 2
